In patent US4011390A, “Semi-synthetic aminocyclitol aminoglycoside antibiotics and methods for the preparation thereof” (Schering-Plough Corporation, priority 1974, dated 1977):
≈ marks a conversion by molar mass, not a printed value. Where two headings read alike, the source gives them in different places.

What was measured:
Trichophyton rubrum = assay: MIC in Mueller-Hinton Broth pH 7.2; type: cell-based; settings: Mueller-Hinton Broth pH 7.2, read-out: MIC
Text: (§1) In vitro Activity of the Mutamicins and Sisomicin
(§2) MIC's in Mueller-Hinton Broth pH 7.2

Candida albicans = assay: MIC in Mueller-Hinton Broth pH 7.2; type: cell-based; settings: Mueller-Hinton Broth pH 7.2, read-out: MIC
Text: as §1, §2

Streptococcus pyogenes [1] = assay: MIC in Mueller-Hinton Broth pH 7.2; type: cell-based
Text: as §1, §2

Staphylococcus aureus [2] = assay: MIC in Mueller-Hinton Broth pH 7.2; type: cell-based
Text: as §1, §2

Pseudomonas aeruginosa [3] = assay: MIC in Mueller-Hinton Broth pH 7.2; type: cell-based
Text: as §1, §2

Klebsiella pneumoniae [4] = assay: MIC in Mueller-Hinton Broth pH 7.2; type: cell-based
Text: as §1, §2

Aspergillus niger = assay: MIC in Mueller-Hinton Broth pH 7.2; type: cell-based; settings: Mueller-Hinton Broth pH 7.2, read-out: MIC
Text: as §1, §2

Escherichia coli [5] = assay: MIC in Mueller-Hinton Broth pH 7.2; type: cell-based
Text: as §1, §2

Salmonella typhimurium = assay: MIC in Mueller-Hinton Broth pH 7.2; type: cell-based; settings: Salmonella enterica, strain B
Text: as §1, §2

Proteus rettgeri = assay: MIC in Mueller-Hinton Broth pH 7.2; type: cell-based; settings: Providencia rettgeri; Mueller-Hinton Broth pH 7.2; read-out: MIC
Text: as §1, §2

Providence = assay: MIC in Mueller-Hinton Broth pH 7.2; type: cell-based; settings: strain (Genta. R.) 164
Text: as §1, §2

Bacillus subtilis [6] = assay: MIC in Mueller-Hinton Broth pH 7.2; type: cell-based; settings: ATCC6633, strain ATCC 6633
Text: as §1, §2

Serratia = assay: MIC in Mueller-Hinton Broth pH 7.2; type: cell-based; settings: strain 127, Mueller-Hinton Broth pH 7.2, read-out: MIC
Text: as §1, §2

Acute Toxicity = settings: mouse, in vivo
Staphylococcus = assay: Protection Tests in Mice; type: in vivo; settings: Staphylococcus Gray, read-out: PD50
Text: (§3) In vivo Activity of the Mutamicin 1 and Sisomicin
(§4) Protection Tests in Mice

Pseudomonas aeruginosa [7] = assay: Protection Tests in Mice; type: in vivo
Text: as §3, §4

Escherichia coli [8] = assay: Protection Tests in Mice; type: in vivo
Text: as §3, §4

Streptococcus pyogenes [9] = assay: Disc test, Bauer-Kirby technique with 10 Mcg. discs; type: cell-based; settings: Streptococcus pyogenes
Text: (§5) Disc Test Results (Replicate Tests) With The Mutamicins, Sisomicin and
(§6) Bauer-Kirby Technique^1 With 10 Mcg. Discs
(§7) ^1 Bauer, Kirby, Sherris and Turck, American Journal of Clinical

Staphylococcus aureus [10] = assay: as above; type: cell-based; settings: Staphylococcus aureus
Text: as §5, §6, §7

Pseudomonas aeruginosa [11] = assay: as above; type: cell-based; settings: Pseudomonas aeruginosa
Text: as §5, §6, §7

Klebsiella pneumoniae [12] = assay: as above; type: cell-based; settings: Klebsiella pneumoniae
Text: as §5, §6, §7

Escherichia coli [13] = assay: as above; type: cell-based; settings: Escherichia coli, read-out: Zone Size
Text: as §5, §6, §7

Providence 164 = assay: as above; type: cell-based; settings: strain 164
Text: as §5, §6, §7

Bacillus subtilis [14] = assay: as above; type: cell-based; settings: Bacillus subtilis, ATCC6633, strain ATCC 6633
Text: as §5, §6, §7

With CN[C@@H]1[C@@H](O)[C@@H](O[C@H]2[C@H](N)[C@@H](O)[C@H](N)[C@@H](O[C@H]3OC(CN)=CC[C@H]3N)[C@@H]2O)OC[C@]1(C)O [Mutamicin 1] the MIC (Trichophyton rubrum) was > 10 µg/mL, the MIC (Candida albicans) was > 25 µg/mL and the MIC (Streptococcus pyogenes [1]; pH 7.2, strain 27) was 7.5 µg/mL (≈ 16.2 µM). It also gave an MIC (Streptococcus pyogenes [1]; pH 7.2, strain Alvarez) of 7.5 µg/mL (≈ 16.2 µM), an MIC (Streptococcus pyogenes [1]; pH 7.2, strain C) of 3 µg/mL (≈ 6.47 µM) and an MIC (Streptococcus pyogenes [1]; pH 7.2, strain Cruz) of 3 µg/mL (≈ 6.47 µM). The MIC (Streptococcus pyogenes [1]; pH 7.2, strain Karipeds) was 3 µg/mL (≈ 6.47 µM), the MIC (Streptococcus pyogenes [1]; pH 7.2, strain Labay) was 7.5 µg/mL (≈ 16.2 µM) and the MIC (Staphylococcus aureus [2]; ATCC6538P, pH 7.2, strain ATCC 6538P) was 0.3 µg/mL (≈ 0.647 µM). The MIC (Staphylococcus aureus [2]; pH 7.2, strain 59N) was 0.3 µg/mL (≈ 0.647 µM), the MIC (Staphylococcus aureus [2]; pH 7.2, strain 1118) was 3 µg/mL (≈ 6.47 µM) and the MIC (Staphylococcus aureus [2]; pH 7.2, strain Grey) was 3 µg/mL (≈ 6.47 µM). The MIC (Staphylococcus aureus [2]; pH 7.2, strain Wood) was 0.08 µg/mL (≈ 0.173 µM), the MIC (Staphylococcus aureus [2]; pH 7.2, strain Ziegler) was 0.08 µg/mL (≈ 0.173 µM) and the MIC (Pseudomonas aeruginosa [3]; pH 7.2) was > 25 µg/mL. For the same molecule, the MIC (Pseudomonas aeruginosa [3]; pH 7.2, strain 762, Mueller-Hinton Broth pH 7.2, read-out: MIC) was 3 µg/mL (≈ 6.47 µM), the MIC (Pseudomonas aeruginosa [3]; pH 7.2, strain 1262, Mueller-Hinton Broth pH 7.2, read-out: MIC) was 3 µg/mL (≈ 6.47 µM) and the MIC (Pseudomonas aeruginosa [3]; pH 7.2, strain 1395, Mueller-Hinton Broth pH 7.2, read-out: MIC) was 3 µg/mL (≈ 6.47 µM). It also gave an MIC (Pseudomonas aeruginosa [3]; pH 7.2, strain D-2, Mueller-Hinton Broth pH 7.2, read-out: MIC) of 0.8 µg/mL (≈ 1.73 µM), an MIC (Pseudomonas aeruginosa [3]; pH 7.2, strain Genta. acetyl Capetown 18, Mueller-Hinton Broth pH 7.2, read-out: MIC) of 7.5 µg/mL (≈ 16.2 µM) and an MIC (Pseudomonas aeruginosa [3]; pH 7.2, strain Genta. acetyl Stone 130, Mueller-Hinton Broth pH 7.2, read-out: MIC) of 17.5 µg/mL (≈ 37.8 µM). The MIC (Pseudomonas aeruginosa [3]; pH 7.2, strain NRRL B3223, Mueller-Hinton Broth pH 7.2, read-out: MIC) was 0.3 µg/mL (≈ 0.647 µM), the MIC (Pseudomonas aeruginosa [3]; pH 7.2, strain Stone 20, Mueller-Hinton Broth pH 7.2, read-out: MIC) was 3 µg/mL (≈ 6.47 µM) and the MIC (Pseudomonas aeruginosa [3]; pH 7.2, strain Stone 39, Mueller-Hinton Broth pH 7.2, read-out: MIC) was 3 µg/mL (≈ 6.47 µM). It also gave an MIC (Pseudomonas aeruginosa [3]; pH 7.2, strain Stone 138, Mueller-Hinton Broth pH 7.2, read-out: MIC) of 17.5 µg/mL (≈ 37.8 µM), an MIC (Klebsiella pneumoniae [4]; pH 7.2, strain Ad 18) of 0.3 µg/mL (≈ 0.647 µM) and an MIC (Klebsiella pneumoniae [4]; pH 7.2, strain Genta. adenyl 121) of 3 µg/mL (≈ 6.47 µM). It also gave an MIC (Klebsiella pneumoniae [4]; pH 7.2, strain Genta. adenyl 3020) of 0.3 µg/mL (≈ 0.647 µM), an MIC (Klebsiella pneumoniae [4]; pH 7.2, strain Genta. adenyl 3694) of 0.3 µg/mL (≈ 0.647 µM) and an MIC (Klebsiella pneumoniae [4]; pH 7.2, strain Kana. phos. Ad 22) of 0.3 µg/mL (≈ 0.647 µM). For the same molecule, the MIC (Aspergillus niger) was > 10 µg/mL, the MIC (Escherichia coli [5]; ATCC10536, pH 7.2, strain ATCC 10536) was 0.3 µg/mL (≈ 0.647 µM) and the MIC (Escherichia coli [5]; pH 7.2, strain Baker 2) was 3 µg/mL (≈ 6.47 µM). It also gave an MIC (Escherichia coli [5]; pH 7.2, strain Fl4-Bk) of 3 µg/mL (≈ 6.47 µM), an MIC (Escherichia coli [5]; pH 7.2, strain Genta. adenyl LA290-R55) of 3 µg/mL (≈ 6.47 µM) and an MIC (Escherichia coli [5]; pH 7.2, strain Genta. adenyl W677/R55) of 0.8 µg/mL (≈ 1.73 µM). For the same molecule, the MIC (Escherichia coli [5]; pH 7.2, strain Kana. phosphor. 589) was 3 µg/mL (≈ 6.47 µM), the MIC (Escherichia coli [5]; pH 7.2, strain Kana. phosphor. C-13) was 3 µg/mL (≈ 6.47 µM) and the MIC (Escherichia coli [5]; pH 7.2, strain Tobra. R 4195) was 3 µg/mL (≈ 6.47 µM). The MIC (Salmonella typhimurium) was 3 µg/mL (≈ 6.47 µM), the MIC (Proteus rettgeri) was 3 µg/mL (≈ 6.47 µM) and the MIC (Providence) was > 25 µg/mL. For the same molecule, the MIC (Bacillus subtilis [6]) was 0.03 µg/mL (≈ 0.0647 µM), the MIC (Serratia) was 0.8 µg/mL (≈ 1.73 µM) and the LD50 (Acute Toxicity; ip) was > 700 mg/kg. It also gave an LD50 (Acute Toxicity; iv) of 110 mg/kg, an ED50 (Staphylococcus) of 6 mg/kg and an ED50 (Pseudomonas aeruginosa [7]; Pseudomonas aeruginosa 2552, read-out: PD50) of 15.3 mg/kg. The ED50 (Pseudomonas aeruginosa [7]; Pseudomonas aeruginosa 2557, read-out: PD50) was 17.1 mg/kg, the ED50 (Pseudomonas aeruginosa [7]; sc, Pseudomonas aeruginosa Sc., read-out: PD50) was 2.5 mg/kg and the ED50 (Escherichia coli [8]; Escherichia coli 6922, read-out: PD50) was 2.5 mg/kg. It also gave an ED50 (Escherichia coli [8]; Escherichia coli Sc., read-out: PD50) of 5 mg/kg, a zone of inhibition at 10 µg/disc (Streptococcus pyogenes [9]; strain B-Cruz) of 17 mm and a zone of inhibition at 10 µg/disc (Streptococcus pyogenes [9]; strain C) of 13 mm. The zone of inhibition at 10 µg/disc (Staphylococcus aureus [10]; ATCC6538P, strain ATCC 6538P) was 26 mm, the zone of inhibition at 10 µg/disc (Staphylococcus aureus [10]; strain 59N) was 26 mm and the zone of inhibition at 10 µg/disc (Staphylococcus aureus [10]; strain Wood) was 28 mm. For the same molecule, the zone of inhibition at 10 µg/disc (Staphylococcus aureus [10]; strain Ziegler) was 25 mm, the zone of inhibition at 10 µg/disc (Pseudomonas aeruginosa [11]; strain Capetown 18) was 19 mm and the zone of inhibition at 10 µg/disc (Pseudomonas aeruginosa [11]; strain D-2) was 21 mm. The zone of inhibition at 10 µg/disc (Pseudomonas aeruginosa [11]; strain St. Michael 413) was 27 mm, the zone of inhibition at 10 µg/disc (Pseudomonas aeruginosa [11]; strain St. Michael 762) was 24 mm and the zone of inhibition at 10 µg/disc (Pseudomonas aeruginosa [11]; strain St. Michael 1262) was 18 mm. For the same molecule, the zone of inhibition at 10 µg/disc (Pseudomonas aeruginosa [11]; strain St. Michael 1395) was 29 mm, the zone of inhibition at 10 µg/disc (Pseudomonas aeruginosa [11]; strain Stone 20) was 31 mm and the zone of inhibition at 10 µg/disc (Pseudomonas aeruginosa [11]; strain Stone 39) was 29 mm. The zone of inhibition at 10 µg/disc (Pseudomonas aeruginosa [11]; strain Stone 130) was 14 mm, the zone of inhibition at 10 µg/disc (Pseudomonas aeruginosa [11]; strain Stone 138) was 15 mm and the zone of inhibition at 10 µg/disc (Klebsiella pneumoniae [12]; strain Ad 17) was 24 mm. For the same molecule, the zone of inhibition at 10 µg/disc (Klebsiella pneumoniae [12]; strain Ad 18) was 26 mm, the zone of inhibition at 10 µg/disc (Klebsiella pneumoniae [12]; strain Georgetown 3020) was 26 mm and the zone of inhibition at 10 µg/disc (Klebsiella pneumoniae [12]; strain Georgetown 3694) was 26 mm. The zone of inhibition at 10 µg/disc (Escherichia coli [13]; ATCC10536, strain ATCC 10536, 10 Mcg. discs) was 31 mm, the zone of inhibition at 10 µg/disc (Escherichia coli [13]) was 11 mm and the zone of inhibition at 10 µg/disc (Escherichia coli [13]; strain 589, 10 Mcg. discs) was 29 mm. It also gave a zone of inhibition at 10 µg/disc (Escherichia coli [13]; strain JR90, 10 Mcg. discs) of 0 mm, a zone of inhibition at 10 µg/disc (Escherichia coli [13]; strain LA290/R55, 10 Mcg. discs) of 29 mm and a zone of inhibition at 10 µg/disc (Escherichia coli [13]; strain Swidinsky 4195, 10 Mcg. discs) of 28 mm. The zone of inhibition at 10 µg/disc (Escherichia coli [13]; strain W677/R55, 10 Mcg. discs) was 30 mm, the zone of inhibition at 10 µg/disc (Providence 164) was 15 mm and the zone of inhibition at 10 µg/disc (Bacillus subtilis [14]) was 31 mm.
